# Results: patent US20140045890A1, “NOVEL COMPOUNDS” (SYNGENTA PARTICIPATIONS AG, priority 2011, published 2014)
# Experiments:
# [1] = tested on: Blumeria qraminis f. sp. tritici (Erysiphe qraminis f. sp. tritici); experiment: Blumeria graminis f. sp. tritici / wheat / leaf disc preventative (powdery mildew on wheat); type: in vivo; conditions: foliar, wheat leaf segments cv. Kanzler, inoculated 1 day after application, assessed 6-8 days after application, read-out: inhibit fungal infestation (percent disease control compared to untreated)
# Pythium ultimum = Pythium ultimum / liquid culture (seedling damping off); type: cell-based; conditions: Globisporangium ultimum, liquid culture in PDB, 24° C., 2-3 days after application, read-out: inhibit fungal infestation (inhibition of growth determined photometrically)
# Plasmopara viticola = Plasmopara viticola / grape / leaf disc preventative; type: in vivo; conditions: foliar, grape vine leaf disks, inoculated 1 day after application, assessed 6-8 days after application, read-out: inhibit fungal infestation (percent disease control compared to untreated)
# Phytophthora infestans = experiment: whole plant or invertebrate; type: in vivo; conditions: in Solanum lycopersicum, foliar, read-out: inhibit fungal infestation (percent disease control compared to untreated)
SMILES,inhibition at 200 ppm [1],inhibition at 200 ppm (Pythium ultimum),inhibition at 200 ppm (Plasmopara viticola),inhibition at 200 ppm (Phytophthora infestans),melting point
COCc1cc(C(C)(C)NC(=O)C(Oc2ccc3ncc(I)cc3c2)SC)no1 (centres unmarked) [Compound 105],≥ 80%,≥ 80%,≥ 80%,≥ 80%,
C#Cc1cnc2ccc(OC(SC)C(=O)NC(C)(C)c3nocc3Br)cc2c1 (centres unmarked) [Compound 64],≥ 80%,≥ 80%,≥ 80%,≥ 80%,
CSc1cnc2ccc(OC(SC)C(=O)NC(C)(C)c3cccc(C)n3)cc2c1 (centres unmarked) [Compound 114],,≥ 80%,,,
C#Cc1cnc2c(C)cc(OC(SC)C(=O)NC(C)(C)c3cccnc3)cc2c1 (centres unmarked) [Compound 56],,≥ 80%,≥ 80%,,
CSc1cnc2ccc(OC(SC)C(=O)NC(C)(C)c3nocc3Br)cc2c1 (centres unmarked) [Compound 65],,≥ 80%,,,
C#Cc1cnc2c(F)cc(OC(SC)C(=O)NCc3nccs3)cc2c1 (centres unmarked) [Compound 115],≥ 80%,≥ 80%,,,
C#Cc1cnc2ccc(OC(SC)C(=O)NC3(c4ccccn4)CC3)cc2c1 (centres unmarked) [Compound 37],≥ 80%,≥ 80%,,≥ 80%,
C#Cc1cnc2c(F)cc(OC(SC)C(=O)NCc3nc(C)cs3)cc2c1 (centres unmarked) [Compound 119],≥ 80%,≥ 80%,≥ 80%,,
CSc1cnc2ccc(OC(SC)C(=O)NCc3nc(C)cs3)cc2c1 (centres unmarked) [Compound 121],,≥ 80%,,,
C#Cc1cnc2ccc(OC(SC)C(=O)NC(C)(C)c3nc(C)c(C)s3)cc2c1 (centres unmarked) [Compound 63],≥ 80%,≥ 80%,,,
C#Cc1cnc2ccc(OC(SC)C(=O)NC(C)(C)c3cccnc3)cc2c1 (centres unmarked) [Compound 57],,≥ 80%,,,
C#Cc1cnc2c(Cl)cc(OC(SC)C(=O)NC(C)(C)c3cc(COC)on3)cc2c1 (centres unmarked) [Compound 96],≥ 80%,≥ 80%,≥ 80%,≥ 80%,
CSC(Oc1ccc2ncc(I)cc2c1)C(=O)NC(C)(C)c1cc(C(F)(F)F)on1 (centres unmarked) [Compound 108],,≥ 80%,≥ 80%,,
C#Cc1cnc2ccc(OC(OC)C(=O)NC(C)(C)c3ccccn3)cc2c1 (centres unmarked) [Compound 55],≥ 80%,≥ 80%,,≥ 80%,
CSC(Oc1ccc2ncc(I)cc2c1)C(=O)NC(C)(C)c1nocc1C (centres unmarked) [Compound 110],≥ 80%,≥ 80%,≥ 80%,≥ 80%,
CSc1cnc2ccc(OC(SC)C(=O)NC(C)(C)c3cc(Cl)on3)cc2c1 (centres unmarked) [Compound 71],,≥ 80%,≥ 80%,,
CSc1cnc2ccc(OC(SC)C(=O)NC(C)(C)c3cc(C(F)(F)F)on3)cc2c1 (centres unmarked) [Compound 104],,≥ 80%,≥ 80%,,
C#Cc1cnc2c(C)cc(OC(SC)C(=O)NC(C)(C)c3cc(CO)on3)cc2c1 (centres unmarked) [Compound 43],,≥ 80%,≥ 80%,≥ 80%,
COCc1cc(C(C)(C)NC(=O)C(Oc2ccc3ncc(SC)cc3c2)SC)no1 (centres unmarked) [Compound 100],,≥ 80%,≥ 80%,≥ 80%,
C#Cc1cnc2c(F)cc(OC(SC)C(=O)NC(C)(C)c3cc(COC)on3)cc2c1 (centres unmarked) [Compound 89],≥ 80%,≥ 80%,≥ 80%,≥ 80%,
"C=Cc1cnc2ccc(OC(SC)C(=O)NC(C)(C)c3ccccn3)cc2c1 (centres unmarked) [Compound 133, N-[1-methyl-1-(2-pyridyl)ethyl]-2-methylsulfanyl-2-[(3-vinyl-6-quinolyl)oxy]acetamide]",,,,,95 to 97 °C
CSc1cnc2ccc(OC(SC)C(=O)NCc3nccs3)cc2c1 (centres unmarked) [Compound 118],,≥ 80%,,,
C#Cc1cnc2ccc(OC(SC)C(=O)NC(C)(C)c3ccncc3)cc2c1 (centres unmarked) [Compound 35],,≥ 80%,,,
C#Cc1cnc2c(C)cc(OC(SC)C(=O)NC(C)(C)c3cc(C(=O)OC)on3)cc2c1 (centres unmarked) [Compound 41],,≥ 80%,≥ 80%,,
"C#Cc1cnc2ccc(OC(SC)C(=O)NC(C)(C)c3cc(C(=O)OC)sn3)cc2c1 (centres unmarked) [Compound 62, methyl 3-[1-[[2-[(3-ethynyl-6-quinolyl)oxy]-2-methylsulfanyl-acetyl]amino]-1-methyl-ethyl]isothiazole-5-carboxylate]",≥ 80%,≥ 80%,≥ 80%,,
CSc1cnc2ccc(OC(SC)C(=O)NC(C)(C)c3cc(C)on3)cc2c1 (centres unmarked) [Compound 66],,≥ 80%,≥ 80%,,
C#Cc1cnc2ccc(OC(SC)C(=O)NC(C)(C)c3cc(C(F)(F)F)on3)cc2c1 (centres unmarked) [Compound 83],≥ 80%,≥ 80%,≥ 80%,≥ 80%,
